In the experiment the target is recombinant DYRK1A kinase (Homo sapiens (Human), UniProt Q13627). Kind of experiment: DYRK1A kinase assay (Ser/Thr 18 peptide Z-lyte FRET assay). In kind it is biochemical. The following applies: recombinant DYRK1A 0.25 µg/mL, ATP 15 µM, Ser/Thr peptide 18 4 µM, one hour at room temperature; table head prints EC50, method says IC50. An outline of the steps:
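Recombinant human DYRK1A (0.25 µg/mL) with 15 µM ATP and 4 µM Ser/Thr 18 peptide was incubated 1 h at room temperature with compound (11-point, 10 µM top), in duplicate. Z-lyte FRET read-out (coumarin/fluorescein emission ratio) was converted to percent phosphorylation; IC50 from non-linear regression.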

This note sets out measurements from US20230312605A1, “PYRROLO[2,1-F][1,2,4]TRIAZINES AND PREPARATION AND USES THEREOF” (BioSplice Therapeutics, Inc., priority 2021, published 2023).

Molecules are shown by their SMILES.

Broadly, the EC50 is the concentration needed to bring the measured effect to its halfway point. Regarding `Cc1nc2ccc(-c3ccn4nc(N[C@H]5CC[C@@](C)(O)CC5)ncc34)nc2n1CC1COC1` [Compound 1875, cis-1-Methyl-4-((5-(2-methyl-3-(oxetan-3-ylmethyl)-3H-imidazo[4,5-b]pyridin-5-yl)pyrrolo[2,1-f][1,2,4]triazin-2-yl)amino)cyclohexan-1-ol], the EC50 turned out to be 14 nM.

In the case of `C[C@]1(O)CC[C@@H](Nc2ncc3c(-c4cnc5ncccc5c4)ccn3n2)CC1` [Compound 1536, (1 s,4s)-4-((5-(1,8 -Naphthyridin-3-yl)pyrrolo [2,1-f] [1,2,4]triazin-2-yl)amino)-1-methylcyclohexan-1-ol], the EC50 was determined as 5 nM.

`Cc1nc2ccc(-c3ccn4nc(N[C@@H]5CCN(C)C[C@H]5F)ncc34)nc2n1CC(F)F` [Compound 1854]: the concentration for a half-maximal effect (EC50) turned out to be 8 nM.

Consider `C[C@@H](Nc1ncc2c(-c3cnc4nccn4c3)ccn2n1)C(F)(F)F` [Compound 219, (R)-5-(Imidazo[1,2-a]pyrimidin-6-yl)-N-(1,1,1-trifluoropropan-2-yl)pyrrolo [2,1-f][1,2,4]triazin-2-amine], for which the EC50 amounted to 14 nM.

Consider `Cc1nc2ccc(-c3ccn4nc(NC5CCC(F)(F)CC5)ncc34)nc2n1CC(C)(C)O` [Compound 1870, 1-(5-(2-((4,4-Difluorocyclohexyl)amino)pyrrolo[2,1-f][1,2,4]triazin-5-yl)-2-methyl-3H-imidazo[4,5-b]pyridin-3-yl)-2-methylpropan-2-ol], for which the EC50 is 78 nM.

With `FC(F)(F)CCNc1ncc2c(-c3cnc4nccn4c3)ccn2n1` [Compound 220, 5-(Imidazo[1,2-a]pyrimidin-6-yl)-N-(3,3,3-trifluoropropyl)pyrrolo[2,1-f] [1,2,4]triazin-2-amine], the EC50 amounted to 14 nM.

Turning to `Cc1nc2ncc(-c3ccn4nc(N[C@H]5CC[C@@H](OC(F)F)CC5)ncc34)cc2n1CC(F)F` [Compound 687], the EC50 was 2 nM.

As for `COCCO[C@H]1CC[C@@H](Nc2ncc3c(-c4cnc5ncccc5c4)ccn3n2)CC1` [Compound 1543, N-(cis-4-(2-Methoxyethoxy)cyclohexyl)-5-(1,8-naphthyridin-3-yl)pyrrolo [2,1-f][1,2,4]triazin-2-amine], the EC50 is 2 nM.

As to `Cc1nc2ccc(-c3ccn4nc(N[C@@H]5CCN(C)C[C@@H]5F)ncc34)nc2n1CC(F)F` [Compound 1853, 5-(3-(2,2-Difluoroethyl)-2-methyl-3H-imidazo[4,5-b]pyridin-5-yl)-N-((3S,4R)-3-fluoro-1-methylpiperidin-4-yl)pyrrolo[2,1-f][1,2,4]triazin-2-amine], the EC50 is 5 nM.

As to `Cc1nc2ncc(-c3ccn4nc(NC5CCN(C6COC6)CC5)ncc34)cc2n1CC(F)F` [Compound 1889, 5-(1-(2,2-Difluoroethyl)-2-methyl-1H-imidazo[4,5-b]pyridin-6-yl)-N-(1-(oxetan-3-yl)piperidin-4-yl)pyrrolo[2,1-f][1,2,4]triazin-2-amine], the EC50 turned out to be 7 nM.

Take `COCC(=O)N[C@]1(C)C[C@@H](Nc2ncc3c(-c4ccc5nccnc5c4)ccn3n2)C1` [Compound 1985, 2-Methoxy-N-(trans-1-methyl-3-((5-(quinoxalin-6-yl)pyrrolo[2,1-f][1,2,4]triazin-2-yl)amino)cyclobutyl)acetamide]: the EC50 turned out to be 3 nM.

In the case of `Cc1cnc2ncc(-c3ccn4nc(NC5CCC(F)(F)CC5)ncc34)cn12` [Compound 398, N-(4,4-Difluorocyclohexyl)-5-(3-methylimidazo[1,2-a]pyrimidin-6-yl) pyrrolo[2,1-f] [1,2,4]triazin-2-amine], the EC50 was determined as 12 nM.

`Cc1nc2ccc(-c3ccn4nc(N[C@H]5CCN(C6COC6)C[C@H]5F)ncc34)nc2n1CC(F)F` [Compound 1955, 5-(3-(2,2-Difluoroethyl)-2-methyl-3H-imidazo[4,5-b]pyridin-5-yl)-N-((3R,4S)-3-fluoro-1-(oxetan-3-yl)piperidin-4-yl)pyrrolo[2,1-f][1,2,4]triazin-2-amine]: the EC50 was 4 nM.

As to `Cc1nc2ccc(-c3ccn4nc(NC5CCN(CC(F)F)CC5)ncc34)nc2n1CC(F)F` [Compound 1850, 5-(3-(2,2-Difluoroethyl)-2-methyl-3H-imidazo[4,5-b]pyridin-5-yl)-N-(1-(2,2-difluoroethyl)piperidin-4-yl)pyrrolo[2,1-f][1,2,4]triazin-2-amine], the EC50 was 8 nM.

Consider `C[C@@H](Nc1ncc2c(-c3cnc4nccn4c3)ccn2n1)C1CC1` [Compound 231, (R)-N-(1-Cyclopropylethyl)-5-(imidazo[1,2-a]pyrimidin-6-yl)pyrrolo[2,1-f] [1,2,4]triazin-2-amine], for which the concentration giving a half-maximal response (EC50) was determined as 28 nM.

Turning to `C[C@]1(O)CC[C@H](Nc2ncc3c(-c4ccc5nccn5c4)ccn3n2)CC1` [Compound 1828, trans-4-((5-(Imidazo[1,2-a]pyridin-6-yl)pyrrolo[2,1-f][l,2,4]triazin-2-yl)amino) -1-methylcyclohexan-1-ol], the EC50 turned out to be 10 nM.

As for `Cc1nc2ncc(-c3ccn4nc(N[C@H]5CCN(C)C[C@@H]5F)ncc34)cc2n1CC(F)F` [Compound 1886, 5-(1-(2,2-Difluoroethyl)-2-methyl-1H-imidazo[4,5-b]pyridin-6-yl)-N-((3S,4S)-3-fluoro-1-methylpiperidin-4-yl)pyrrolo[2,1-f][1,2,4]triazin-2-amine], the EC50 turned out to be 3 nM.

Take `FC(F)(CNc1ncc2c(-c3cnc4nccn4c3)ccn2n1)C1CC1` [Compound 232, N-(2-Cyclopropyl-2,2-difluoroethyl)-5-(imidazo[1,2-a]pyrimidin-6-yl) pyrrolo[2,1-f][1,2,4]triazin-2-amine]: the EC50 was determined as 9 nM.

Take `Cc1nc2ccc(-c3ccn4nc(N[C@H]5CC[C@@H](CO)CC5)ncc34)nc2n1CC(F)F` [Compound 1837, (cis-4-((5-(3-(2,2-Difluoroethyl)-2-methyl-3H-imidazo[4,5-b]pyridin-5-yl)pyrrolo[2,1-f][1,2,4]triazin-2-yl)amino)cyclohexyl)methanol]: the EC50 came to 6 nM.

In the case of `Cc1nc2ccc(-c3ccn4nc(NC5CCNCC5)ncc34)nc2n1CC(F)F` [Compound 1916, 5-(3-(2,2-difluoroethyl)-2-methyl-3H-imidazo[4,5-b]pyridin-5-yl)-N-(piperidin-4-yl)pyrrolo[2,1-f][1,2,4]triazin-2-amine], the EC50 was 5 nM.

With `Cc1nc2ncc(-c3ccn4nc(N[C@@H]5CCN(C)C[C@@H]5F)ncc34)cc2n1CC(F)F` [Compound 1884, 5-(1-(2,2-Difluoroethyl)-2-methyl-1H-imidazo[4,5-b]pyridin-6-yl)-N-((3S,4R)-3-fluoro-1-methylpiperidin-4-yl)pyrrolo[2,1-f][1,2,4]triazin-2-amine], the EC50 came to 7 nM.

In the case of `Cc1nc2ccc(-c3ccn4nc(N[C@H]5CC[C@@](C)(O)CC5)ncc34)nc2n1CC(F)F` [Compound 1110, (1s,4s)-4-((5-(3-(2,2-Difluoroethyl)-2-methyl-3H-imidazo[4,5-b]pyridin-5-yl)pyrrolo[2,1-f][1,2,4]triazin-2-yl)amino)-1-methylcyclohexan-1-ol], the EC50 is 3 nM.

In the case of `CCO[C@H]1C[C@@H](Nc2ncc3c(-c4cnc5nccn5c4)ccn3n2)C1` [Compound 242, N-(cis-3-Ethoxycyclobutyl)-5-(imidazo[1,2-a]pyrimidin-6-yl)pyrrolo[2,1-f] [1,2,4]triazin-2-amine], the EC50 was 5 nM.

As for `Cc1nc2ccc(-c3ccn4nc(N[C@H]5CC[C@@H](OCCO)CC5)ncc34)nc2n1CC(F)F` [Compound 1839, 2-((cis-4-((5-(3-(2,2-difluoroethyl)-2-methyl-3H-imidazo[4,5-b]pyridin-5-yl)pyrrolo[2,1-f][1,2,4]triazin-2-yl)amino)cyclohexyl)oxy)ethan-1-ol], the EC50 was 4 nM.

With `c1cnc2ccc(-c3ccn4nc(NC5CC6(CNC6)C5)ncc34)cc2c1` [Compound 1747, 5-(Quinolin-6-yl)-N-(2-azaspiro[3.3]heptan-6-yl)pyrrolo[2,1-f][1,2,4]triazin-2-amine], the EC50 is 3 nM.

For `Cc1nc2ccc(-c3ccn4nc(N[C@H](C)CO)ncc34)nc2n1CC(F)F` [Compound 1830, (R)-2-((5-(3-(2,2-Difluoroethyl)-2-methyl-3H-imidazo[4,5-b]pyridin-5-yl)pyrrolo[2,1-f][1,2,4]triazin-2-yl)amino)propan-1-ol], the EC50 worked out at 16 nM.

For the molecule `CCOC(=O)[C@H]1CC[C@@H](Nc2ncc3c(-c4ccc5nc(C)n(CC(F)F)c5n4)ccn3n2)CC1` [Compound 1843, Ethyl cis-4-((5-(3-(2,2-difluoroethyl)-2-methyl-3H-imidazo[4,5-b]pyridin-5-yl)pyrrolo[2,1-f][1,2,4]triazin-2-yl)amino)cyclohexane-1-carboxylate], the EC50 turned out to be 33 nM.

`c1cn2cc(-c3ccn4nc(NCC5COC5)ncc34)ccc2n1` [Compound 20]: the EC50 came out at 67 nM.

Turning to `Cc1nc2ccc(-c3ccn4nc(N[C@H]5CC[C@@](C)(O)CC5)ncc34)nc2n1CC(F)(F)F` [Compound 1868, cis-1-Methyl-4-((5-(2-methyl-3-(2,2,2-trifluoroethyl)-3H-imidazo[4,5-b]pyridin-5-yl)pyrrolo[2,1-f] [1,2,4]triazin-2-yl)amino)cyclohexan-1-ol], the EC50 was 9 nM.

For `Cc1nc2ccc(-c3ccn4nc(N[C@H]5CCN(C)C[C@H]5F)ncc34)nc2n1CC(F)F` [Compound 1856], the EC50 turned out to be 6 nM.

As for `Cc1nc2ccc(-c3ccn4nc(NC5CCOCC5)ncc34)nc2n1CC(F)F` [Compound 1132, 5-(3-(2,2-Difluoroethyl)-2-methyl-3H-imidazo[4,5-b]pyridin-5-yl)-N-(tetrahydro-2H-pyran-4-yl)pyrrolo[2,1-f][1,2,4]triazin-2-amine], the EC50 was found to be 5 nM.

Turning to `CC(C)CN1CC2(CC(Nc3ncc4c(-c5ccc6ncccc6c5)ccn4n3)C2)C1` [Compound 1771, N-(2-isobutyl-2-azaspiro[3.3]heptan-6-yl)-5-(quinolin-6-yl)pyrrolo[2,1-f] [1,2,4]triazin-2-amine], the EC50 is 5 nM.
